Experiments:
[1] = system: HCV replicon (Renilla luciferase reporter) in HUH-7 cells; assay: HCV replicon luciferase reporter assay; format: cell-based, HCV strain 1b; conditions: Huh-7, 96 h; 4 days
Excerpt: An HCV replicon whole cell system was established as described by Lohmann V, Korner F, Koch J, Herian U, Theilmann L, Bartenschlager R., Science 285(5424): 110-3 (1999). This system enabled us to evaluate the effects of our HCV Protease compounds on HCV RNA replication. Briefly, using the HCV strain 1b sequence described in the Lohmann paper (Assession number: AJ238799), an HCV cDNA was synthesized by Operon Technologies, Inc. (Alameda, Calif.), and the full-length replicon was then assembled in plasmid pGem9zf(+) (Promega, Madison, Wis.) using standard molecular biology techniques. […]
As a secondary assay, EC50 determinations from the replicon FRET assay were confirmed in a replicon luciferase reporter assay. […] Following 4 days in a 37° C./5% CO2 incubator, cells were analyzed for Renilla Luciferase activity using the Promega Dual-Glo Luciferase Assay System. […] Plates were read on a Packard TopCount NXT using a luminescence program.
The percentage inhibition was calculated using the formula below: • % control=average luciferase signal in experimental wells (+compound) • average luciferase signal in DMSO control wells (−compound)
The values were graphed and analyzed using XLfit to obtain the EC50 value.

[2] = target: T1, human neutrophil elastase (HNE) (Homo sapiens, UniProt P08246); assay: Specificity assay, neutrophil elastase; format: biochemical; conditions: read-out: HLE activity in the specificity assay (IC50)
T1 construct: purchased Sigma or EMDbiosciences
T1 sequence (P08246 30-267): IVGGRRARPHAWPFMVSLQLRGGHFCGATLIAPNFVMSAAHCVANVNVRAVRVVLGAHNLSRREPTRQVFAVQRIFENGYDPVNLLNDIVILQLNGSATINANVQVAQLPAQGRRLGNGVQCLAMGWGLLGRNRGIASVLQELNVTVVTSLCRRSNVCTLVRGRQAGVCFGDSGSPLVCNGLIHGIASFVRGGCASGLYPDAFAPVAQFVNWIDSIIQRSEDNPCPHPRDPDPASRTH
Protocol: The specificities of compounds of the present disclosure were determined against a variety of serine proteases: human neutrophil elastase (HNE), porcine pancreatic elastase (PPE) and human pancreatic chymotrypsin and one cysteine protease: human liver cathepsin B. In all cases, a 96-well plate format protocol using colorimetric p-nitroaniline (pNA) substrate or fluorometric Amino-Methyl-Coumarin (AMC) substrate, specific for each enzyme was used as described previously (PCT Patent Application No. WO 00/09543) with some modifications. All enzymes were purchased from Sigma or EMDbiosciences while the substrates were from Bachem.
Each pNA assay included a 2 h enzyme-inhibitor pre-incubation at room temperature followed by addition of substrate and hydrolysis to ˜15% conversion as measured on a Spectramax Pro microplate reader. The cathepsin B assay was initiated by adding substrate to a 10 min enzyme-inhibitor pre-incubation at room temperature, and the assay plate measured immediately using the Cytofluor Series 4000. Compound concentrations varied from 100 to 0.4 μM depending on their potency.
50 mM Tris(hydroxymethyl)aminomethane hydrochloride (Tris-HCl) pH 8, 0.5 M Sodium Sulfate (Na2SO4), 50 mM NaCl, 0.1 mM EDTA, 3% DMSO, 0.01% Tween-20 with: […]
The percentage of inhibition was calculated using the formula: [1−((UVinh−UVblank)/(UVctl−UVblank))]×100 […]

For `CC(C)(C)OC(=O)N[C@H]1CN(C2CC2)CCC/C=C\C2C[C@@]2(C(=O)NS(=O)(=O)C2CC2)NC(=O)[C@@H]2C[C@@H](Oc3ccccn3)CN2C1=O` (some centres unmarked) [Compound 1], the EC50 [1] was 202 nM and the IC50 [2] was > 100000 nM.

Reference: US20080107625A1, “Inhibitors of Hepatitis C Virus” (Bristol-Myers Squibb Company, priority 2006, published 2008)
